Assay results published in paper PMC7253423, “Quassinoid analogs with enhanced efficacy for treatment of hematologic malignancies target the PI3Kγ isoform” (Communications Biology, 2020).

Key:
[1] = molecular target: T1, PIK3C2B encoded protein (PI3KC2β) (Homo sapiens, UniProt O00750); experiment: Streptavidin pull-down and mass spectrometry; assay type: binding; conditions: Raji lysates, gene PIK3C2B
T1 construct: endogenous in cells; host or cells: Raji cells (lysate)
Protocol: (§1) Two hundred million Raji cells were harvested and lysed with RIPA buffer [1% Nonidet P-40 (NP-40), 10 mM Tris (pH8.0), 2 mM EDTA, 150 mM NaCl, supplemented with protease inhibitors (1 mM phenylmethylsulphonyl fluoride (PMSF), 1 μg/ml each Aprotinin, Pepstatin, and Leupeptin)]. Twenty milligram lysates were combined with magnetic Streptavidin beads as well as biotin-conjugated compounds 51046, 51048, or 51052, respectively. The complexes were incubated overnight with rotation at 4 °C. The immunoprecipitated samples were washed with RIPA three times and resolved on an SDS-PAGE gel.
(§2) The following Mass Spectrometry proteomics resources and services are provided by the Quantitative Proteomics Resource Core at School of Medicine at the University of Pennsylvania. Briefly, the peptides were extracted from the gel band and analyzed with an Orbitrap Fusion (Thermo Fisher Scientific, San Jose, CA, USA) attached to an EasyLC 1000 system (Thermo Fisher Scientific, San Jose, CA, USA) at 400 nL/min. The raw MS data were processed using MaxQuant (Version 1.5.3.30)[61], and searched with the UniProt human database. Then the target-decoy approach was used to filter the search results, in which the false discovery rate was less than 1% at the peptide and protein level.

[2] = molecular target: T2, JUP encoded protein (junction plakoglobin) (Homo sapiens, UniProt P14923); experiment: Streptavidin pull-down and mass spectrometry; assay type: binding; conditions: Raji lysates, gene JUP
T2 construct: endogenous in cells; host or cells: Raji cells (lysate)
Protocol: as §1, §2

[3] = molecular target: T3, AKT1 (Homo sapiens, UniProt P31749); experiment: Competitive binding pull-down assay in SU-DHL-4 cell lysates, western blot; conditions: SU-DHL-4 lysates
T3 construct: endogenous in cells; host or cells: SU-DHL-4 cells (lysate)
Protocol: (§3) Thirty microgram of purified GST-tagged proteins were pre-cleared with Dynabeads M-280 Streptavidin (Invitrogen, Carlsbad, CA, USA). […] The complexes were harvested and washed with PBS. The collected beads were mixed with SDS loading buffer for further analysis.
(§4) Western blot analyses were performed as previously described. Briefly, total cell lysates were separated by SDS-PAGE gel and transferred to nitrocellulose membrane. The membranes were blocked with 5% non-fat milk, probed with specific antibodies, and visualized using the Odyssey scanner (LiCor Inc., Lincoln, NE).

[4] = molecular target: T4, GAPDH (Homo sapiens, UniProt P04406); experiment: as above; conditions: SU-DHL-4 lysates
T4 construct: endogenous in cells; host or cells: SU-DHL-4 cells (lysate)
Protocol: as §3, §4

[5] = molecular target: T5, PI3Kγ (Homo sapiens, UniProt P48736); experiment: as above; conditions: SU-DHL-4 lysates, biotin derivative alone
T5 construct: endogenous in cells; host or cells: SU-DHL-4 cells (lysate)
Protocol: as §3, §4

[6] = molecular target: T6, GST-tagged PI3Kγ protein (Homo sapiens, UniProt P48736); experiment: In vitro pull-down assay with purified protein; assay type: binding; conditions: 0, 300 μM, or 500 μM compound, Dynabeads M-280 Streptavidin
T6 construct: made in house; host or cells: E. coli BL21 (DE3)
Excerpt: PIK3CG cDNA (Plasmid #20574) was purchased from Addgene and cloned into a pGEX-6P-1 vector (GE Healthcare, Madison, WI, USA) with SalI and NotI (NEB, USA). This GST-tagged PIK3CG plasmid was transformed into E. coli BL21 (DE3)-competent cells (Life Technologies, Carlsbad, CA, USA) for in vitro expression according to Molecular Cloning (Third Edition).
as §3

[7] = molecular target: T7, PIK3CG encoded protein (PI3Kγ) (Homo sapiens, UniProt P48736); experiment: Streptavidin pull-down and mass spectrometry; assay type: binding; conditions: Raji lysates, gene PIK3CG
T7 construct: endogenous in cells; host or cells: Raji cells (lysate)
Protocol: as §1, §2

[8] = molecular target: T8, TP73 encoded protein (P73) (Homo sapiens, UniProt O15350); experiment: Streptavidin pull-down and mass spectrometry; assay type: binding; conditions: Raji lysates, gene TP73
T8 construct: endogenous in cells; host or cells: Raji cells (lysate)
Protocol: as §1, §2

T3 sequence (P31749 whole entry): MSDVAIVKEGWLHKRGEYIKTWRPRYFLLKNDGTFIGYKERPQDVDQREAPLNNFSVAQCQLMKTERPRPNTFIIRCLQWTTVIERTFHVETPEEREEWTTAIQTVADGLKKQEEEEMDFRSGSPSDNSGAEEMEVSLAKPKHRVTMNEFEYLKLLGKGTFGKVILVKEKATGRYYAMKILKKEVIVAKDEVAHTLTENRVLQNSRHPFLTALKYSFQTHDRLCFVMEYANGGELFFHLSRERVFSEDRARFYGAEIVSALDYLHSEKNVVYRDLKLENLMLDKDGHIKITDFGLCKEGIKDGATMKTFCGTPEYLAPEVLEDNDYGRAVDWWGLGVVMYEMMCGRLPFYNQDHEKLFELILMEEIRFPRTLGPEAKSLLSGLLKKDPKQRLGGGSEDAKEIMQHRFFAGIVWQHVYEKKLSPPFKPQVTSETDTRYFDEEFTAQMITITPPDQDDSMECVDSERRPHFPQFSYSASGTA
T7 sequence (P48736 whole entry): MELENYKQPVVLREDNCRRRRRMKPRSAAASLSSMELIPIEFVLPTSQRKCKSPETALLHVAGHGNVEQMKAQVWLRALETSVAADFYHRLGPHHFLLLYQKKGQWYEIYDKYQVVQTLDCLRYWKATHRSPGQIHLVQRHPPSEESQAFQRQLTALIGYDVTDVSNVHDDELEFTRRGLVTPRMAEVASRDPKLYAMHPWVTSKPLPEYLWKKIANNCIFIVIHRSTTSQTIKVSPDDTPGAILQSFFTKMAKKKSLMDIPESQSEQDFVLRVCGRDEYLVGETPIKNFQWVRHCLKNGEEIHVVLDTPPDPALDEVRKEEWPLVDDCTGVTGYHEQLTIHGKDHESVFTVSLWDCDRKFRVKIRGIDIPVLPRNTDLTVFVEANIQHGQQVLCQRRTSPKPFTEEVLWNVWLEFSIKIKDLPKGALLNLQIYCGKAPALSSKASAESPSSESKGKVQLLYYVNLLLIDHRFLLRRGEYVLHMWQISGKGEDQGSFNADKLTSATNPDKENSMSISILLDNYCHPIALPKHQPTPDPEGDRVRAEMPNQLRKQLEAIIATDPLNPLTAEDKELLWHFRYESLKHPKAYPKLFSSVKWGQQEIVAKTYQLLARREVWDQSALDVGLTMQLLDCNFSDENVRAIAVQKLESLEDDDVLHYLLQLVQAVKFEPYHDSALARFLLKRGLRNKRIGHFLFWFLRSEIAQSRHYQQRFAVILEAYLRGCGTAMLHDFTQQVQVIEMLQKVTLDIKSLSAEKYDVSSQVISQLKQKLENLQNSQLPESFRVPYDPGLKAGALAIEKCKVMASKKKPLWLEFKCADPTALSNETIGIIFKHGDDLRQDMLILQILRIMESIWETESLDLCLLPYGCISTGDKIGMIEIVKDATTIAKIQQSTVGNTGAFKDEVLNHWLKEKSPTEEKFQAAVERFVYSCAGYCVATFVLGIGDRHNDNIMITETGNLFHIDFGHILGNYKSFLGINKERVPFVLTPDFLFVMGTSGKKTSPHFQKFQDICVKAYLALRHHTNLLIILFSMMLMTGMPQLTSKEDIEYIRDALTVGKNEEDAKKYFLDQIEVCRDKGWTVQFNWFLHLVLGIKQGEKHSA
T5 sequence (P48736 whole entry): as above
T6 sequence (P48736 whole entry): as above
T1 sequence (O00750 whole entry): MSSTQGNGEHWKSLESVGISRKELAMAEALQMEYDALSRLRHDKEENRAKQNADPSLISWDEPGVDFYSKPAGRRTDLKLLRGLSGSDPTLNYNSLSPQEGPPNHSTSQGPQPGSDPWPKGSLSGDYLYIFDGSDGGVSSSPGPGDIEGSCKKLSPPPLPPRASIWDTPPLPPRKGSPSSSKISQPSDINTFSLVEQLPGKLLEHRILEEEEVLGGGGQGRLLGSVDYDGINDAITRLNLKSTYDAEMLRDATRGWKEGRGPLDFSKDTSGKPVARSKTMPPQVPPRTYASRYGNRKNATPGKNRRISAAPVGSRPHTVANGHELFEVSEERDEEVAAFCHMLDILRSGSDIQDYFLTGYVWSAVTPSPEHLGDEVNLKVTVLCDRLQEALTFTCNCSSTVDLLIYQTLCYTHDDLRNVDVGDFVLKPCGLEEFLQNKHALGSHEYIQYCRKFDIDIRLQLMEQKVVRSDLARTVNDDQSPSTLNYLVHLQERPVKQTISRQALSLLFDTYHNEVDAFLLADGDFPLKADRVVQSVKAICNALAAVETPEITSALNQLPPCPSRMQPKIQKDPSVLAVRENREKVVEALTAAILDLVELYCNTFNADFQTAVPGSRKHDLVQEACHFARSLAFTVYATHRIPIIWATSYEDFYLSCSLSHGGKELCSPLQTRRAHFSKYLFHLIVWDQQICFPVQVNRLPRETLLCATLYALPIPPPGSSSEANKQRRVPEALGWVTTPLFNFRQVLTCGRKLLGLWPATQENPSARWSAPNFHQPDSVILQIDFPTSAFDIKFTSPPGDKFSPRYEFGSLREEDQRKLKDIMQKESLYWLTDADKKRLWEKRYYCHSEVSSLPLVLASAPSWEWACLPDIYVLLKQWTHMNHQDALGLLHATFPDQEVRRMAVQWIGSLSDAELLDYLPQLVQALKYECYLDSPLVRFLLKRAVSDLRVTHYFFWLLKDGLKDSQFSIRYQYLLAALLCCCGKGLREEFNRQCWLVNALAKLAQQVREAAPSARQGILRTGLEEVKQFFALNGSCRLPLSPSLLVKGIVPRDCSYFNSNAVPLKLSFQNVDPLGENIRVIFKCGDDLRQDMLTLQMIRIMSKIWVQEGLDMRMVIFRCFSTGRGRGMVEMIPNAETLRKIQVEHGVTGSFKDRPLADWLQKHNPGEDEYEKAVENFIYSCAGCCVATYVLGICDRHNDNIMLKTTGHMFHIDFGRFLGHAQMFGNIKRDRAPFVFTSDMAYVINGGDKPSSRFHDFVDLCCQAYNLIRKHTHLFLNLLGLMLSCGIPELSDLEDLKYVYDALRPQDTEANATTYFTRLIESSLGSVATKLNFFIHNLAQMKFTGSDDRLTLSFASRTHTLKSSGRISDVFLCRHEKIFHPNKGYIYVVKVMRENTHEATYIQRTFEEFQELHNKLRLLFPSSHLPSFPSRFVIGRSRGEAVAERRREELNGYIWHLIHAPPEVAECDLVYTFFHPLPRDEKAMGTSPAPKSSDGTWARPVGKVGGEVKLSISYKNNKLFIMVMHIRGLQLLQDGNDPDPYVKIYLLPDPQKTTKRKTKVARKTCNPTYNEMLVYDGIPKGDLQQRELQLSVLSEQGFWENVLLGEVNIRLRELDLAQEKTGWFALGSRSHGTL
T2 sequence (P14923 whole entry): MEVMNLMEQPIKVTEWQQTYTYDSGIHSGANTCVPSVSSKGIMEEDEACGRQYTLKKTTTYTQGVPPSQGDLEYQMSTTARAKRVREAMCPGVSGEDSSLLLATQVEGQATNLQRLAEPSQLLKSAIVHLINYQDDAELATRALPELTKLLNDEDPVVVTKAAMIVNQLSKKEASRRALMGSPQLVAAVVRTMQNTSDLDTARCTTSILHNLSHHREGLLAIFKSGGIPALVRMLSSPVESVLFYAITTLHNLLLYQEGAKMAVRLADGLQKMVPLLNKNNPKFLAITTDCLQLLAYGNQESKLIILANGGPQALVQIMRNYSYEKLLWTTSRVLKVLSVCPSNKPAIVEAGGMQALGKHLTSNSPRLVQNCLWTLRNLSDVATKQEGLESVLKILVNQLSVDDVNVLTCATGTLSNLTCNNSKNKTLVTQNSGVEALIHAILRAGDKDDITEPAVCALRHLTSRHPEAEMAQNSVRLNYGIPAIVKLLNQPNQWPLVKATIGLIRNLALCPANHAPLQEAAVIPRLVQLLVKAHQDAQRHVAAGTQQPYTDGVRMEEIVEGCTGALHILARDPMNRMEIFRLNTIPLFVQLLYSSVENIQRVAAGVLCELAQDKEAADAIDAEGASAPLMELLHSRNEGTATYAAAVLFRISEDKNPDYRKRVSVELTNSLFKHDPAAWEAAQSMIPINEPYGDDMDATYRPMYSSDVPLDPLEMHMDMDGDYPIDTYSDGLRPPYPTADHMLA
T8 sequence (O15350 whole entry): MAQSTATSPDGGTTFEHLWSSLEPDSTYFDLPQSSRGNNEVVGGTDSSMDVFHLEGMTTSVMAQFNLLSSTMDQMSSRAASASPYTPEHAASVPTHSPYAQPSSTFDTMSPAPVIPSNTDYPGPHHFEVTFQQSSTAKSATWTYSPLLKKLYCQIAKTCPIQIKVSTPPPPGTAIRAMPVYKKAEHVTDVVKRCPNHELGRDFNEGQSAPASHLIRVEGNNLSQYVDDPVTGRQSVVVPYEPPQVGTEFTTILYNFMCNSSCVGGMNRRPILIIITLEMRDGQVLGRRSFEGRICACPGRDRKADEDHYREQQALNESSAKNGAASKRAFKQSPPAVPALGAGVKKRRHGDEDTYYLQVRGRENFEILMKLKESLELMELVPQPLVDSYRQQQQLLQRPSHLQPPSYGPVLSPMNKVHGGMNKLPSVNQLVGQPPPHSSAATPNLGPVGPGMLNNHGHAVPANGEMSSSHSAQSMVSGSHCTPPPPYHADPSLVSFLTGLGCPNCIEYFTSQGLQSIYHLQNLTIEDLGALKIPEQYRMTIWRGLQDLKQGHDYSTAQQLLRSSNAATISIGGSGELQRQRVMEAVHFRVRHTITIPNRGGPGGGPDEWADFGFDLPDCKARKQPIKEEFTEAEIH
T4 sequence (P04406 whole entry): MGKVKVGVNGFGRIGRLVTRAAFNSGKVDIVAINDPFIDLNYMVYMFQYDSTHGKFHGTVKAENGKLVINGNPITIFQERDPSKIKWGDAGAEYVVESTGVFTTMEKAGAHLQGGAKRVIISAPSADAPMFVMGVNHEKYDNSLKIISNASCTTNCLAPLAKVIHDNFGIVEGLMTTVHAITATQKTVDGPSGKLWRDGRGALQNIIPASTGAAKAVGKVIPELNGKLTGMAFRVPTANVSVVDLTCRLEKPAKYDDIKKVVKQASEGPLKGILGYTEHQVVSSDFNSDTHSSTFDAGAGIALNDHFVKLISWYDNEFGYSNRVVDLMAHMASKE

SMILES | Score (sum of the ion scores of all peptides identified) [1] | Score (sum of the ion scores of all peptides identified) [2] | AKT1 pulled down [3] | GAPDH pulled down [4] | binding activity with PI3Kγ [5] | association with GST-tagged PI3Kγ [6] | Score (sum of the ion scores of all peptides identified) [7] | Score (sum of the ion scores of all peptides identified) [8]
COC(=O)C12OCC34C(CC5C(C)=C(OC(=O)CCCCC6SCC7NC(=O)NC76)C(=O)CC5(C)C3C(O)C1O)OC(=O)C(OC(=O)C=C(C)C)C24 (centres unmarked) [compound 51048] | 5.9631 | 11.324 | little or no detectable levels | little or no detectable levels | relatively strong |  |  | 
COC(=O)C12OCC34C(CC5C(C)=C(OC(=O)CCCCCNC(=O)CCCCC6SCC7NC(=O)NC76)C(=O)CC5(C)C3C(O)C1O)OC(=O)C(OC(=O)C=C(C)C)C24 (centres unmarked) [compound 51052] |  |  |  |  |  | formed a complex | 6.132 | 6.0132
